# Biological target: T1, cPLA2 (Homo sapiens, UniProt P47712)
# T1 sequence (P47712 1-749): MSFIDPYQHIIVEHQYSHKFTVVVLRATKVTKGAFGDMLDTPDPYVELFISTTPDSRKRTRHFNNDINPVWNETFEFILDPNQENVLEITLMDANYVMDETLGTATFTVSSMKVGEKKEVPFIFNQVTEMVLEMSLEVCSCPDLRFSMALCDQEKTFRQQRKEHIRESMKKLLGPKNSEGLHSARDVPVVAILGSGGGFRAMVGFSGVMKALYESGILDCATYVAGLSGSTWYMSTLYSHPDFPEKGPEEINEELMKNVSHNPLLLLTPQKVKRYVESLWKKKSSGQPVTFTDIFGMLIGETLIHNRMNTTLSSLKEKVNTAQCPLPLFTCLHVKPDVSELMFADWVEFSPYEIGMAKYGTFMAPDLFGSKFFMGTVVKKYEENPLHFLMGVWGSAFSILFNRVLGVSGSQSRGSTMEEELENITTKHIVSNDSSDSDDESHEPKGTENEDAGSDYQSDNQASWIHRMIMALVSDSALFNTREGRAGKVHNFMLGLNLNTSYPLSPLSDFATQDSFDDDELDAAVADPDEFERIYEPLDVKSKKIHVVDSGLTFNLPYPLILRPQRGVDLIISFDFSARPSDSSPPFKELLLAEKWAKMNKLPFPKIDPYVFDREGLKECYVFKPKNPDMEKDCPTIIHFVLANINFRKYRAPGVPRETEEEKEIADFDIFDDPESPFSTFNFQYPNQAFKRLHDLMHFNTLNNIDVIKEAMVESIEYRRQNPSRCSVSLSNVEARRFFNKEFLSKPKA
# Assay: Coumarine Assay
# Type: biochemical
# Settings: 60 μM 7-hydroxycoumarinyl 6-heptenoate substrate, 4 μg cPLA2, pH 7.5, fluorescence ex 360 nm / em 460 nm; read-out: Coumarin IC50
# Experimental: Inhibitors were mixed with 200 μL assay buffer (80 mM Heped, pH 7.5, 1 mM EDTA) containing 60 μM 7-hydroxycoumarinyl 6-heptenoate. The reaction was initiated by adding 4 μg cPLA2 in 50 μL assay buffer. Hydrolysis of the 7-hydroxycounarimyl 6-heptenoate ester was monitored in a fluorometer by exciting at 360 nm and monitoring emission at 460 nm. Enzyme activity is proportional to the increase in emission at 460 nm per minute. In the presence of a cPLA2 inhibitor, the rate of increase is less.
row,Compound,IC50 [nM]
1,2-(2{[(2-Aminobenzyl)sulfonyl]amino}ethyl)-4-(2-[1-benzhydryl-5-chloro-1H-indol-3-yl]ethoxy}benzoic acid [Example 16],980
2,4-{2-[1-Benzhydryl-5-chloro-2-(2-{[(2-cyanobenzyl)sulfonyl]amino}ethyl)-1H-indol-3-yl]ethoxy)benzoic acid [Example 35],330
3,"O=C(O)c1ccc(OCCc2c(CCNS(=O)(=O)Cc3ccccc3)n(C(c3ccccc3)c3ccccc3)c3ccc(Cl)cc23)cc1 [Example 1, 4-[2-(1-Benzhydryl-2-{2[(benzylsulfonyl)amino]ethyl}-5-chloro-1H-indol-3-yl)ethoxyl]benzoic acid]",420
4,"CC(C)S(=O)(=O)NCCc1c(CCOc2ccc(C(=O)O)cc2)c2cc(Cl)ccc2n1C(c1ccccc1)c1ccccc1 [Example 2, 4-[2-(1-Benzhydryl-5-chloro-2-{2-[(isopropylsulfonyl)amino]ethyl}-1H-indol-3-yl)ethoxy]benzoic acid]",2000
5,"CCCCS(=O)(=O)NCCc1c(CCOc2ccc(C(=O)O)cc2)c2cc(Cl)ccc2n1C(c1ccccc1)c1ccccc1 [Example 3, 4-[2-(1-Benzhydryl-2-{2-[(butylsulfonyl)amino]ethyl}-5-chloro-1H-indol-3-yl)ethoxy]benzoic acid]",2500
6,"Cn1cnc(S(=O)(=O)NCCc2c(CCOc3ccc(C(=O)O)cc3)c3cc(Cl)ccc3n2C(c2ccccc2)c2ccccc2)c1 [Example 4, 4-{2-[1-Benzhydryl-5-chloro-2-(2{[(1-methyl-1H-imidazol-4-yl)sulfonyl]amino}ethyl)-1H-indol-3-yl]ethoxy}benzoic acid]",56000
7,"O=C(O)c1ccc(OCCc2c(CCNS(=O)(=O)c3cnc(Cl)c(Br)c3)n(C(c3ccccc3)c3ccccc3)c3ccc(Cl)cc23)cc1 [Example 5, 4-{2-[1-Benzhydryl-2-(2-{[(5-bromo6-chloro-3-pyridinyl)sulfonyl]amino}ethyl)-5-chloro-1H-indol-3-yl]ethoxy}benzoic acid]",3000
8,"CC1(C)C2CC[C@]1(CS(=O)(=O)NCCc1c(CCOc3ccc(C(=O)O)cc3)c3cc(Cl)ccc3n1C(c1ccccc1)c1ccccc1)C(=O)C2 [Example 6, 4-[2-(1-Benzhydryl-5-chloro-2-{2-[({[(1R)-7,7-dimethyl-2-oxobicyclo[2.2.1]hept-1-yl]methyl}sulfonyl)amino]ethyl}-1H-indol-3-yl)ethoxy]benzoic acid]",2000
9,"CS(=O)(=O)CS(=O)(=O)NCCc1c(CCOc2ccc(C(=O)O)cc2)c2cc(Cl)ccc2n1C(c1ccccc1)c1ccccc1 [Example 7, 4-(2-(1-Benzhydryl-5-chloro-2-[2-({[(methylsulfonyl)methyl]sulfonyl}amino)ethyl]-1H-indol-3-yl}ethoxy)benzoic acid]",550
10,O=C(O)c1ccc(OCCc2c(CCNS(=O)(=O)CCc3cccc4ccccc34)n(C(c3ccccc3)c3ccccc3)c3ccc(Cl)cc23)cc1 [Example 8],2000
11,"O=C(O)c1ccc(OCCc2c(CCNS(=O)(=O)Cc3ccccc3[N+](=O)[O-])n(C(c3ccccc3)c3ccccc3)c3ccc(Cl)cc23)cc1 [Example 9, 4-{2-[1-Benzhydryl-5-chloro-2-(2-[({2-nitrobenzyl}-sulfonyl)amino]ethyl}-1H-indol-3-yl)ethoxy]benzoic acid]",700
12,O=C(O)c1ccc(OCCc2c(CCNS(=O)(=O)Cc3ccc(C(F)(F)F)cc3)n(C(c3ccccc3)c3ccccc3)c3ccc(Cl)cc23)cc1 [Example 13],640
13,"O=C(O)c1ccc(OCCc2c(CCNS(=O)(=O)Cc3ccc(F)cc3)n(C(c3ccccc3)c3ccccc3)c3ccc(Cl)cc23)cc1 [Example 14, 4-{2-[1-Benzhydryl-5-chloro-2-(2-{[(4-fluorobenzyl)sulfonyl]amino}-ethyl)-1H-indol-3-yl]ethoxy}benzoic acid]",800
14,"CN(C)S(=O)(=O)NCCc1c(CCOc2ccc(C(=O)O)cc2)c2cc(Cl)ccc2n1C(c1ccccc1)c1ccccc1 [Example 17, 4-{2-[1-Benzhydryl-5-chloro-2-(2-{[(dimethylamino)sulfonyl]amino}ethyl)-1H-indol-3-yl]ethoxy}benzoic acid]",200
15,"O=C(O)c1ccc(OCCc2c(CCNS(=O)(=O)Cc3ccc(F)c(F)c3)n(C(c3ccccc3)c3ccccc3)c3ccc(Cl)cc23)cc1 [Example 18, 4-{2-[1-Benzhydryl-5-chloro-2-(2{[(3,4-difluorobenzyl)sulfonyl]amino}-ethyl)-1H-indol-3-yl]ethoxy}benzoic acid]",400
16,"O=C(O)c1ccc(OCCc2c(CCNS(=O)(=O)Cc3ccc4ccccc4c3)n(C(c3ccccc3)c3ccccc3)c3ccc(Cl)cc23)cc1 [Example 19, 4-{2-[1-benzhydryl-5-chloro-2-(2{[(2-naphthylmethyl)sulfonyl]amino}ethyl)-1H-indol-3-yl]ethoxy}benzoic acid]",310
17,"O=C(O)c1ccc(OCCc2c(CCNS(=O)(=O)Cc3cccc(C(=O)O)c3)n(C(c3ccccc3)c3ccccc3)c3ccc(Cl)cc23)cc1 [Example 20, 3-({[(2-{1-benzhydryl-3-[2-(4-carboxyphenoxy)ethyl]-5-chloro-1H-indol-2-yl}ethyl)amino]sulfonyl}methyl)benzoic acid]",1100
18,"O=C(O)c1ccc(OCCc2c(CCNS(=O)(=O)C(F)(F)F)n(C(c3ccccc3)c3ccccc3)c3ccc(Cl)cc23)cc1 [Example 22, 4-{2-[1-benzhydryl-5-chloro-2-(2-{[(trifluoromethyl)sulfonyl]amino}ethyl)-1H-indol-3-yl]ethoxy}benzoic acid]",1800
19,"O=C(O)c1ccc(OCCc2c(CCNS(=O)(=O)C3CC3)n(C(c3ccccc3)c3ccccc3)c3ccc(Cl)cc23)cc1 [Example 23, 4-[2-(1-benzhydryl-5-chloro-2-{2-[(cyclopropylsulfonyl)amino]ethyl}-1H-indol-3-yl)ethoxy]benzoic acid]",1500
20,"O=C(O)c1ccc(OCCc2c(CCNS(=O)(=O)Cc3cc(C(F)(F)F)cc(C(F)(F)F)c3)n(C(c3ccccc3)c3ccccc3)c3ccc(Cl)cc23)cc1 [Example 24, 4-(2-{1-benzhydryl-2-[2-({[3,5-bis(trifluoromethyl)benzyl]sulfonyl}amino)ethyl]-5-chloro-1H-indol-3-yl}ethoxy)benzoic acid]",340
21,"O=C(O)c1ccc(OCCc2c(CCNS(=O)(=O)c3ccccc3C(=O)O)n(C(c3ccccc3)c3ccccc3)c3ccc(Cl)cc23)cc1 [Example 25, 2-{[(2-{1-benzhydryl-3-[2-(4-carboxyphenoxy)ethyl]-5-chloro-1H-indol-2-yl}ethyl)amino]sulfonyl}benzoic acid]",3400
22,"O=C(O)c1ccc(OCCc2c(CCNS(=O)(=O)c3ccc4ccccc4c3)n(C(c3ccccc3)c3ccccc3)c3ccc(Cl)cc23)cc1 [Example 26, 4-[2-(1-benzhydryl-5-chloro-2-{2-[(2-naphthylsulfonyl)amino]ethyl}-1H-indol-3-yl)ethoxy]benzoic acid]",1100
23,"O=C(O)c1ccc(OCCc2c(CCNS(=O)(=O)c3cc(Cl)cc(Cl)c3)n(C(c3ccccc3)c3ccccc3)c3ccc(Cl)cc23)cc1 [Example 27, 4-{2-[1-benzhydryl-5-chloro-2-(2-{[(3,5-dichlorophenyl)sulfonyl]amino}ethyl)-1H-indol-3-yl]ethoxy}benzoic acid]",800
24,"O=C(O)c1ccc(OCCc2c(CCNS(=O)(=O)c3ccc(Cl)c(Cl)c3)n(C(c3ccccc3)c3ccccc3)c3ccc(Cl)cc23)cc1 [Example 28, 4-{2-[1-benzhydryl-5-chloro-2-(2{[(3,4-dichlorophenyl)sulfonyl]amino}ethyl)-1H-indol-3-yl]ethoxy}benzoic acid]",950
25,"O=C(O)c1ccc(OCCc2c(CCNS(=O)(=O)Cc3cccc(Cl)c3Cl)n(C(c3ccccc3)c3ccccc3)c3ccc(Cl)cc23)cc1 [Example 29, 4-{2-[1-benzhydryl-5-chloro-2-(2-{[(2,3-dichlorobenzyl)sulfonyl]amino}ethyl)-1H indol-3-yl]ethoxy}benzoic acid]",190
26,"O=C(O)c1ccc(OCCc2c(CCNS(=O)(=O)Cc3ccc(Cl)cc3Cl)n(C(c3ccccc3)c3ccccc3)c3ccc(Cl)cc23)cc1 [Example 30, 4-{2-[1-benzhydryl-5-chloro-2-(2-{[(2,4-dichlorobenzyl)sulfonyl]amino}ethyl)-1H-indol-3-yl]ethoxy}benzoic acid]",150
27,"O=C(O)c1ccc(OCCc2c(CCNS(=O)(=O)Cc3ccc(Cl)cc3[N+](=O)[O-])n(C(c3ccccc3)c3ccccc3)c3ccc(Cl)cc23)cc1 [Example 32, 4-{2-[1-benzhydryl-5-chloro-2-(2-{[(4-chloro-2-nitrobenzyl)sulfonyl]amino}ethyl)-1H-indol-3-yl]ethoxy}benzoic acid]",85
28,"N#Cc1cccc(CS(=O)(=O)NCCc2c(CCOc3ccc(C(=O)O)cc3)c3cc(Cl)ccc3n2C(c2ccccc2)c2ccccc2)c1 [Example 36, 4-{2-[1-Benzhydryl-5-chloro-2-(2-{[(3-cyanobenzyl)sulfonyl]amino}ethyl)-1H-indol-3-yl]ethoxy}benzoic acid]",500
